According to the C3SDB collision cross section collection:

Details: [M+H-H2O]+; instrument: TW; calibrated with polyalanine and drug standards

| collision cross section (N2) | SMILES |
| --- | --- |
| 166.5 Å² | CNc1ccccc1C(=O)N1CCc2c([nH]c3ccccc23)C1=O [RHETSININE] |
| 209 Å² | CC(C)CCC[C@@H](C)[C@H]1CC[C@H]2[C@@H]3CC[C@H]4C[C@@H](O)CC[C@]4(C)[C@H]3CC[C@]12C [5alpha-CHOLESTANOL] |

| SMILES | collision cross section (N2) |
| --- | --- |
| CNCC(O)c1ccc(O)cc1 (stereo not drawn) [OXEDRINE] | 132 Å² |

Same assay, conditions: [M+H]+; instrument: TW; calibrated with polyalanine and drug standards

| collision cross section (N2) | SMILES |
| --- | --- |
| 137.7 Å² | O=C(O)c1cc(=O)c2cccc(O)c2[nH]1 [XANTHURENIC ACID] |
| 165.6 Å² | COc1c(O)cc2c(-c3ccccc3)cc(=O)oc2c1OC [KUHLMANNIN] |
| 241.2 Å² | CCCCCCCCCCC[C@@H](C[C@@H]1OC(=O)[C@H]1CCCCCC)OC(=O)[C@H](CC(C)C)NC=O [ORLISTAT] |
| 158.5 Å² | CCCNC(=O)NS(=O)(=O)c1ccc(Cl)cc1 [CHLORPROPAMIDE] |
| 121.7 Å² | NC(=O)c1cccnc1 [NIACINAMIDE] |
| 155.6 Å² | Cc1c(Cl)cccc1Nc1ccccc1C(=O)O [TOLFENAMIC ACID] |
| 200.5 Å² | CC1=C(/C=C/C(C)=C/C=C/C(C)=C/C(=O)Nc2ccc(O)cc2)C(C)(C)CCC1 [FENRETINIDE] |
| 148.3 Å² | O=C1c2cccc(O)c2C(=O)c2c(O)cccc21 [DANTHRON] |
| 161.5 Å² | CC(C)NCC(O)COc1cccc2ccccc12 (stereo not drawn) [PROPRANOLOL] |
| 197 Å² | CC(=O)O[C@]1(C(C)=O)CC[C@H]2[C@@H]3C=C(Cl)C4=CC(=O)CC[C@]4(C)[C@H]3CC[C@@]21C [CHLORMADINONE ACETATE] |
| 201.2 Å² | CC1(C)O[C@@H]2C[C@H]3[C@@H]4C[C@H](F)C5=CC(=O)CC[C@]5(C)[C@H]4[C@@H](O)C[C@]3(C)[C@]2(C(=O)CO)O1 [FLURANDRENOLIDE] |
| 129.1 Å² | Cc1cc(O)cc(O)c1C(=O)O [ORSELLINIC ACID] |
| 157.6 Å² | CC(C)NCC(O)COc1cccc2[nH]ccc12 (stereo not drawn) [PINDOLOL] |
| 143.7 Å² | CC1=NS(=O)(=O)c2cc(Cl)ccc2N1 [DIAZOXIDE] |
| 124.5 Å² | O=C(O)c1ccc2c(c1)OCO2 [PIPERONYLIC ACID] |
| 147 Å² | CCCCCC1C(=O)CCC1CC(=O)O (stereo not drawn) [DIHYDROJASMONIC ACID] |
| 142.4 Å² | COc1ccc2oc3ccccc3c(=O)c2c1 [2-METHOXYXANTHONE] |
| 170 Å² | Nc1ccc(S(=O)(=O)Nc2ccnn2-c2ccccc2)cc1 [SULFAPHENAZOLE] |
| 169.8 Å² | COc1cc(OC)c2c(=O)c(-c3ccc4c(c3)OCO4)coc2c1 [DERRUSTONE] |
| 128.3 Å² | NC(=O)NC(=O)Cc1ccccc1 [PHENACEMIDE] |
| 196.1 Å² | CC(=O)OCC(=O)[C@@]1(O)CC[C@H]2[C@@H]3CCC4=CC(=O)CC[C@]4(C)[C@H]3[C@@H](O)C[C@@]21C [HYDROCORTISONE ACETATE] |
| 171.9 Å² | COc1ccc(-c2coc3c(OC)c(OC)cc(O)c3c2=O)cc1 [ISOTECTORIGENIN, 7-METHYL ETHER] |
| 156 Å² | O=c1cc(-c2ccc(O)cc2)oc2cc(O)cc(O)c12 [APIGENIN] |
| 168.5 Å² | COc1ccc(-c2coc3c(O)c(O)c(OC)cc3c2=O)cc1 [DIPTERYXIN] |
| 196.5 Å² | Cc1cnc(C(=O)NCCc2ccc(S(=O)(=O)NC(=O)NC3CCCCC3)cc2)cn1 [GLIPIZIDE] |
| 181.5 Å² | C=CCSCC1Nc2cc(Cl)c(S(N)(=O)=O)cc2S(=O)(=O)N1 (stereo not drawn) [ALTHIAZIDE] |
| 227 Å² | COc1cccc2c1C(=O)c1c(O)c3c(c(O)c1C2=O)C[C@@](O)(C(=O)CO)C[C@@H]3O[C@H]1C[C@H](N)[C@H](O)[C@H](C)O1 [DOXORUBICIN] |
| 159.4 Å² | COc1ccc(C(=O)CC(=O)O)c2c1C=CC(C)(C)O2 [URSINOIC ACID] |
| 157.5 Å² | CCCOc1ccc2nc(NC(=O)OC)[nH]c2c1 [OXIBENDAZOLE] |
| 189.2 Å² | C[C@@H]1C[C@H]2[C@@H]3C[C@H](F)C4=CC(=O)C=C[C@]4(C)[C@@]3(F)[C@@H](O)C[C@]2(C)[C@@]1(O)C(=O)CO [FLUMETHASONE] |

The remaining lines, values behind:

| SMILES | collision cross section (N2) |
| --- | --- |
| CCCN(CCC)C(=O)C(CCC(=O)O)NC(=O)c1ccccc1 (stereo not drawn) [PROGLUMIDE] | 181.1 Å² |
| COc1ccc(C(CN(C)C)C2(O)CCCCC2)cc1 (stereo not drawn) [VENLAFAXINE] | 169.9 Å² |
| CC1Cc2ccccc2N1NC(=O)c1ccc(Cl)c(S(N)(=O)=O)c1 (stereo not drawn) [INDAPAMIDE] | 184.6 Å² |
| O=C(O)[C@@H]1[C@H]2C[C@H]3c4[nH]c5ccccc5c4CCN3C[C@@H]2CC[C@@H]1O [YOHIMBIC ACID] | 181.7 Å² |
| Cc1ncc(CNC(=O)N(CCCl)N=O)c(N)n1 [NIMUSTINE] | 158.9 Å² |
| COc1ccc2c(c1OC)C(=O)O[C@@H]2[C@H]1c2cc3c(cc2CCN1C)OCO3 [HYDRASTINE (1R, 9S)] | 186.3 Å² |
| CCOc1ccc(C(=O)c2ccc(OC)c(O)c2O)cc1 [2,3-DIHYDROXY-4-METHOXY-4'-ETHOXYBENZOPHENONE] | 164 Å² |
| Nc1c2ccccc2nc2ccccc12 [AMINACRINE] | 136.8 Å² |
| CC(C)CCC[C@@H](C)[C@H]1CC[C@H]2[C@@H]3CC=C4CC(=O)CC[C@]4(C)[C@H]3CC[C@]12C [CHOLEST-5-EN-3-ONE] | 211.4 Å² |
| COc1c2ccoc2nc2c(OC)c(OCC(O)C(C)(C)O)ccc12 (stereo not drawn) [EVOXINE] | 181.4 Å² |
| CC(=O)OC1CC[C@@]2(C)C(CC[C@H]3[C@@H]4CC=C(C(C)=O)[C@@]4(C)C(=O)C[C@@H]32)C1 (stereo partly drawn) [3-ACETOXYPREGN-16-EN-12,20-DIONE] | 189.5 Å² |
| Oc1ccc(Cl)c2cccnc12 [CLOXYQUIN] | 129.5 Å² |
| CC(=O)O[C@@H]1CC(=O)[C@@]2(C)C(CC(=O)[C@]3(C)C2CC[C@@]2(C)[C@H](c4ccoc4)OC(=O)C4OC423)C1(C)C (stereo partly drawn) [1,7-DIDEACETOXY-1,7-DIOXOKHIVORIN] | 210.9 Å² |
| O=C1C[C@@H]2OCC=C3CN4CC[C@]56c7ccccc7N1[C@H]5[C@H]2[C@H]3C[C@H]46 [STRYCHNINE] | 172.2 Å² |
| CO[C@H]1[C@H](O)[C@H](O[C@H]2CC[C@@]3(C=O)[C@H](CC[C@@H]4[C@@H]3CC[C@]3(C)[C@@H](C5=CC(=O)OC5)CC[C@]43O)C2)O[C@@H](C)[C@@H]1O [PERUVOSIDE] | 239.4 Å² |
| C=C(C)C1Cc2c(ccc3c(=O)c4c(oc23)COc2cc(OC)c(OC)cc2-4)O1 (stereo not drawn) [DEHYDROROTENONE] | 192.3 Å² |
| COc1cc(C)c2c(=O)cc(-c3ccccc3)oc2c1 [METHOXYVONE] | 156.5 Å² |
| CC[C@@]1(O)C[C@H](O[C@H]2C[C@H](N(C)C)[C@H](O)[C@H](C)O2)c2c(cc3c(c2O)C(=O)c2c(O)ccc(O)c2C3=O)[C@H]1C(=O)OC [PYRROMYCIN] | 233.9 Å² |
| O=C(NC(Cc1cc(=O)[nH]c2ccccc12)C(=O)O)c1ccc(Cl)cc1 (stereo not drawn) [REBAMIPIDE] | 185 Å² |
| CC(=O)CC(c1ccccc1)c1c(O)c2ccccc2oc1=O (stereo not drawn) [WARFARIN] | 165.9 Å² |
| Nc1ccncc1 [FAMPRIDINE] | 117.8 Å² |
| C=CCc1cc(OC)c2c(c1OC)OCO2 [APIOLE] | 146.1 Å² |
| O=C1C(Cl)=C(Cl)C(=O)C(Cl)=C1Cl [CHLORANIL] | 148.9 Å² |

Same assay, conditions: [M+Na]+; instrument: TW; calibrated with polyalanine and drug standards

| collision cross section (N2) | SMILES |
| --- | --- |
| 170.7 Å² | CS(=O)(=O)c1ccc([C@@H](O)[C@@H](CF)NC(=O)C(Cl)Cl)cc1 [FLORFENICOL] |
| 235.6 Å² | CC(=O)O[C@H]1C[C@@]2(C)[C@@H](C[C@@H](O)[C@H]3[C@@]4(C)CC[C@@H](O)[C@@H](C)[C@@H]4CC[C@@]32C)/C1=C(\CCC=C(C)C)C(=O)O [FUSIDIC ACID] |
| 206.6 Å² | CC(=O)Oc1cc(OC(C)=O)c2c(c1)O[C@H](c1ccc(OC(C)=O)c(OC(C)=O)c1)[C@@H](OC(C)=O)C2 [CATECHIN PENTAACETATE] |
| 164.8 Å² | CC(=O)N[C@H]1C(O)O[C@H](CO)[C@@H](O)[C@@H]1O[C@H](C)C(=O)O (stereo partly drawn) [N-ACETYLMURAMIC ACID] |
| 175.7 Å² | OC[C@H]1O[C@@H](O[C@H]2[C@H](O)[C@@H](O)[C@@H](O)O[C@@H]2CO)[C@H](O)[C@@H](O)[C@@H]1O [CELLOBIOSE (D[+])] |
| 266.1 Å² | COc1cc([C@@H]2c3cc4c(cc3[C@@H](O[C@@H]3O[C@@H]5CO[C@@H](c6cccs6)O[C@H]5[C@H](O)[C@H]3O)[C@H]3COC(=O)[C@H]23)OCO4)cc(OC)c1O [TENIPOSIDE] |
| 205.9 Å² | C[C@@H]1O[C@@H](Oc2c(-c3ccc(O)c(O)c3)oc3cc(O)cc(O)c3c2=O)[C@H](O)[C@H](O)[C@H]1O [QUERCITRIN] |
| 202 Å² | CC[C@H](C)C(=O)O[C@H]1C[C@@H](C)C=C2C=C[C@H](C)[C@H](CC[C@@H]3C[C@@H](O)CC(=O)O3)[C@H]21 [LOVASTATIN] |

Second part, the compound before the results:

| SMILES | collision cross section (N2) |
| --- | --- |
| O=C(CCc1ccc(O)cc1)c1c(O)cc(O)cc1O[C@@H]1O[C@H](CO)[C@@H](O)[C@H](O)[C@H]1O [PHLORIDZIN] | 194.4 Å² |
| C[C@@H]1CC[C@H]2[C@@H](C)C(=O)O[C@@H]3O[C@@]4(C)CC[C@@H]1[C@]32OO4 [ARTEMISININ] | 168.1 Å² |

Same assay, conditions: [M]+; instrument: TW; calibrated with polyalanine and drug standards

| SMILES | collision cross section (N2) |
| --- | --- |
| CCCCCCCCCCCC[N+](C)(C)Cc1ccccc1 [BENZALKONIUM CHLORIDE C12] | 193 Å² |
| C[N+]12CC[C@@]34c5ccccc5N5C(=O)CC6OCC=C(C1)[C@H](CC32)[C@@H]6C54 (stereo partly drawn) [STRYCHNINE METHIODIDE] | 175.2 Å² |
